Our source for the pest or weed control values is patent publication US10206394B2, “Herbicidal compounds” (Syngenta Participations AG, priority 2014, dated 2019).

SMILES strings stand for the structures. Read-outs that look alike come from different tables or passages of the source.

Holding throughout (test): Glasshouse assay for herbicidal activity (pre- and post-emergence), percentage phytotoxicity
What all share (type): in vivo

Experiment [1] has as its system Alopecurus myosuroides (ALOMY). The following applies: Alopecurus myosuroides. The essentials: (§1)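 Damage was rated visually as percent phytotoxicity, 100% meaning total kill, 20 days after pre-emergence application (made one day post-sowing) or 15 days after post-emergence application (made about 12 days post-sowing). Plants were grown under 16 h light, 65% humidity, warm species 24/18° C, cool 20/16° C.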

For the next experiment, the system named is Avena fatua (AVEFA). The following applies: Avena fatua. The gist of the method: as §1
For experiment [2], the system named is Echinochloa crus-galli (ECHCG). The note with it: Echinochloa crus-galli. The gist of the method:
as §1

The next experiment relates to Lolium perenne (LOLPE). The note with it: Lolium perenne. The gist of the method:
as §1

Where [3] appears, read: post-emergence, 360 h, Rate 250 g/ha, post-emergence, visual assessment 15 DAA, 100%=total damage, 0%=no damage, read-out: Post-emergence herbicidal activity (percentage phytotoxicity) ALOMY POST.
[4] abbreviates: pre-emergence, 480 h, Rate 250 g/ha, pre-emergence, visual assessment 20 DAA, 100%=total damage, 0%=no damage, read-out: Pre-emergence herbicidal activity (percentage phytotoxicity) ALOMY PRE.
Setting [5] is: post-emergence, 360 h, Rate 250 g/ha, post-emergence, visual assessment 15 DAA, 100%=total damage, 0%=no damage, read-out: Post-emergence herbicidal activity (percentage phytotoxicity) AVEFA POST.
Setting [6] is: pre-emergence, 480 h, Rate 250 g/ha, pre-emergence, visual assessment 20 DAA, 100%=total damage, 0%=no damage, read-out: Pre-emergence herbicidal activity (percentage phytotoxicity) AVEFA PRE.
The mark [7] stands for this setting: post-emergence, 360 h, Rate 250 g/ha, post-emergence, visual assessment 15 DAA, 100%=total damage, 0%=no damage, read-out: Post-emergence herbicidal activity (percentage phytotoxicity) ECHCG POST.
Where [8] appears, read: pre-emergence, 480 h, Rate 250 g/ha, pre-emergence, visual assessment 20 DAA, 100%=total damage, 0%=no damage, read-out: Pre-emergence herbicidal activity (percentage phytotoxicity) ECHCG PRE.
[9] abbreviates: post-emergence, 360 h, Rate 250 g/ha, post-emergence, visual assessment 15 DAA, 100%=total damage, 0%=no damage, read-out: Post-emergence herbicidal activity (percentage phytotoxicity) LOLPE POST.
Where [10] appears, read: pre-emergence, 480 h, Rate 250 g/ha, pre-emergence, visual assessment 20 DAA, 100%=total damage, 0%=no damage, read-out: Pre-emergence herbicidal activity (percentage phytotoxicity) LOLPE PRE.
The mark [11] stands for this setting: post-emergence, 360 h, 250 g/ha, post-emergence, 15 DAA, visual assessment (100%=total damage, 0%=no damage), read-out: Post-emergence herbicidal activity (percentage phytotoxicity) ALOMY POST.
Setting [12] is: pre-emergence, 480 h, 250 g/ha, pre-emergence, 20 DAA, visual assessment (100%=total damage, 0%=no damage), read-out: Pre-emergence herbicidal activity (percentage phytotoxicity) ALOMY PRE.
Setting [13] is: post-emergence, 360 h, 250 g/ha, post-emergence, 15 DAA, visual assessment (100%=total damage, 0%=no damage), read-out: Post-emergence herbicidal activity (percentage phytotoxicity) AVEFA POST.
Setting [14] is: pre-emergence, 480 h, 250 g/ha, pre-emergence, 20 DAA, visual assessment (100%=total damage, 0%=no damage), read-out: Pre-emergence herbicidal activity (percentage phytotoxicity) AVEFA PRE.
[15] abbreviates: post-emergence, 360 h, 250 g/ha, post-emergence, 15 DAA, visual assessment (100%=total damage, 0%=no damage), read-out: Post-emergence herbicidal activity (percentage phytotoxicity) ECHCG POST.
Setting [16] is: pre-emergence, 480 h, 250 g/ha, pre-emergence, 20 DAA, visual assessment (100%=total damage, 0%=no damage), read-out: Pre-emergence herbicidal activity (percentage phytotoxicity) ECHCG PRE.
The mark [17] stands for this setting: post-emergence, 360 h, 250 g/ha, post-emergence, 15 DAA, visual assessment (100%=total damage, 0%=no damage), read-out: Post-emergence herbicidal activity (percentage phytotoxicity) LOLPE POST.
Where [18] appears, read: pre-emergence, 480 h, 250 g/ha, pre-emergence, 20 DAA, visual assessment (100%=total damage, 0%=no damage), read-out: Pre-emergence herbicidal activity (percentage phytotoxicity) LOLPE PRE.
The mark [19] stands for this setting: post-emergence, 360 h, Rate 250 g/ha, post-emergence, assessed visually 15 DAA, 100%=total damage, 0%=no damage, read-out: Post-emergence herbicidal activity (percentage phytotoxicity) ALOMY POST.
The mark [20] stands for this setting: pre-emergence, 480 h, Rate 250 g/ha, pre-emergence, assessed visually 20 DAA, 100%=total damage, 0%=no damage, read-out: Pre-emergence herbicidal activity (percentage phytotoxicity) ALOMY PRE.
[21] abbreviates: post-emergence, 360 h, Rate 250 g/ha, post-emergence, assessed visually 15 DAA, 100%=total damage, 0%=no damage, read-out: Post-emergence herbicidal activity (percentage phytotoxicity) AVEFA POST.
The mark [22] stands for this setting: pre-emergence, 480 h, Rate 250 g/ha, pre-emergence, assessed visually 20 DAA, 100%=total damage, 0%=no damage, read-out: Pre-emergence herbicidal activity (percentage phytotoxicity) AVEFA PRE.
The mark [23] stands for this setting: post-emergence, 360 h, Rate 250 g/ha, post-emergence, assessed visually 15 DAA, 100%=total damage, 0%=no damage, read-out: Post-emergence herbicidal activity (percentage phytotoxicity) ECHCG POST.
Setting [24] is: pre-emergence, 480 h, Rate 250 g/ha, pre-emergence, assessed visually 20 DAA, 100%=total damage, 0%=no damage, read-out: Pre-emergence herbicidal activity (percentage phytotoxicity) ECHCG PRE.
Where [25] appears, read: post-emergence, 360 h, Rate 250 g/ha, post-emergence, assessed visually 15 DAA, 100%=total damage, 0%=no damage, read-out: Post-emergence herbicidal activity (percentage phytotoxicity) LOLPE POST.
The mark [26] stands for this setting: pre-emergence, 480 h, Rate 250 g/ha, pre-emergence, assessed visually 20 DAA, 100%=total damage, 0%=no damage, read-out: Pre-emergence herbicidal activity (percentage phytotoxicity) LOLPE PRE.

With `C#CCNC(=O)CC1CC(=O)C(c2c(C)cc(-c3ccc(F)cn3)cc2C)C1=O` (stereo not shown) [Compound B387], the pest or weed control at 250 g/ha was determined as 90% in experiment [1] (setting [3]); 90% in experiment [1] (setting [4]); 100% in the experiment on Avena fatua (AVEFA) (setting [5]); 100% in the experiment with Avena fatua (AVEFA) (setting [6]); 90% in experiment [2] (setting [7]); 100% in experiment [2] (setting [8]). Further, the pest or weed control at 250 g/ha in the experiment on Lolium perenne (LOLPE) (setting [9]) and in the experiment with Lolium perenne (LOLPE) (setting [10]) was 90% each time.

Take `COc1cccc(CNC(=O)CC2CC(=O)C(c3c(C)cc(Br)cc3C)C2=O)c1` (stereo not shown) [Compound B132]: the pest or weed control at 250 g/ha in experiment [1] (setting [11]) came out at 60%; in experiment [1] (setting [12]), 80%; in the experiment with Avena fatua (AVEFA) (setting [13]), 20%; with Avena fatua (AVEFA) (setting [14]) it was 30%; in experiment [2] (setting [15]) it was 80%; in experiment [2] (setting [16]), 20%. The pest or weed control at 250 g/ha came to 70% in the experiment with Lolium perenne (LOLPE) (setting [17]) and 80% with Lolium perenne (LOLPE) (setting [18]).

For the compound `CC#Cc1cc(C)c(C2C(=O)CC(CC(=O)N(C)CCC)C2=O)c(CC)c1` (stereo not shown) [Compound A79], the pest or weed control at 250 g/ha (in experiment [1] (setting [19]); in experiment [1] (setting [20]); in the experiment with Avena fatua (AVEFA) (setting [21]); in the experiment on Avena fatua (AVEFA) (setting [22]); in experiment [2] (setting [23]); in experiment [2] (setting [24])) was 100% throughout. Also, the pest or weed control at 250 g/ha in the experiment with Lolium perenne (LOLPE) (setting [25]) and with Lolium perenne (LOLPE) (setting [26]) was 100% in each case.

Turning to `Cc1cccc(CNC(=O)CC2CC(=O)C(c3c(C)cc(-c4ncc(Cl)cc4F)cc3C)C2=O)c1` (stereo not shown) [Compound A119], the pest or weed control at 250 g/ha in experiment [1] (setting [19]) amounted to 60%; in experiment [1] (setting [20]), 40%; in the experiment on Avena fatua (AVEFA) (setting [21]) it was 90%; with Avena fatua (AVEFA) (setting [22]) it was 60%; in experiment [2] (setting [23]), 100%; in experiment [2] (setting [24]) it was 100%. For the same compound, the figures for the pest or weed control at 250 g/ha in the experiment with Lolium perenne (LOLPE) (setting [25]) and in the experiment on Lolium perenne (LOLPE) (setting [26]) were 90% and 70%, respectively.

Consider `Cc1cc(C)c(C2C(=O)CC(CC(=O)NCc3ncccc3Cl)C2=O)c(C)c1` (stereo not shown) [Compound A107], for which the pest or weed control at 250 g/ha in experiment [1] (setting [19]) was 80%; in experiment [1] (setting [20]), 80%; in the experiment on Avena fatua (AVEFA) (setting [21]) it was 90%; in the experiment with Avena fatua (AVEFA) (setting [22]), 10%; in experiment [2] (setting [23]) it was 70%; in experiment [2] (setting [24]), 80%. For the same compound, the pest or weed control at 250 g/ha in the experiment with Lolium perenne (LOLPE) (setting [25]) was determined as 80%; in the experiment with Lolium perenne (LOLPE) (setting [26]) it was 90%.

Regarding `Cc1cc(C)c(C2C(=O)CC(C(C)C(=O)NCc3cccc(C(F)(F)F)c3)C2=O)c(C)c1` (stereo not shown) [Compound A166], the pest or weed control at 250 g/ha in experiment [1] (setting [19]) was found to be 40%; in experiment [1] (setting [20]) it was 40%; in the experiment on Avena fatua (AVEFA) (setting [21]), 70%; in the experiment on Avena fatua (AVEFA) (setting [22]) it was 20%; in experiment [2] (setting [23]) it was 90%; in experiment [2] (setting [24]), 70%. Besides, the pest or weed control at 250 g/ha in the experiment on Lolium perenne (LOLPE) (setting [25]) and in the experiment on Lolium perenne (LOLPE) (setting [26]) was 70% each time.

`CCc1cccc(C)c1C1C(=O)CC(CC(=O)N2CCOCC2)C1=O` (stereo not shown) [Compound B148]: the pest or weed control at 250 g/ha in experiment [1] (setting [11]) amounted to 90%; in experiment [1] (setting [12]), 70%; in the experiment on Avena fatua (AVEFA) (setting [13]) it was 100%; in the experiment with Avena fatua (AVEFA) (setting [14]), 70%; in experiment [2] (setting [15]), 100%; in experiment [2] (setting [16]) it was 100%. Besides, the pest or weed control at 250 g/ha in the experiment on Lolium perenne (LOLPE) (setting [17]) turned out to be 90%; in the experiment with Lolium perenne (LOLPE) (setting [18]), 80%.

As to `C#CCNC(=O)CC1CC(=O)C(c2c(C)cc(C#CC)cc2CC)C1=O` (stereo not shown) [Compound A68], the pest or weed control at 250 g/ha is 90% in experiment [1] (setting [19]); 70% in experiment [1] (setting [20]); 100% in the experiment on Avena fatua (AVEFA) (setting [21]); 100% in the experiment with Avena fatua (AVEFA) (setting [22]); 100% in experiment [2] (setting [23]); 100% in experiment [2] (setting [24]). In addition, the pest or weed control at 250 g/ha in the experiment with Lolium perenne (LOLPE) (setting [25]) and in the experiment with Lolium perenne (LOLPE) (setting [26]) was 100% each time.

`CC#Cc1cc(C)c(C2C(=O)CC(CC(=O)NC(C)C)C2=O)c(CC)c1` (stereo not shown) [Compound A54]: the pest or weed control at 250 g/ha (in experiment [1] (setting [19]); in experiment [1] (setting [20]); in the experiment on Avena fatua (AVEFA) (setting [21]); with Avena fatua (AVEFA) (setting [22]); in experiment [2] (setting [23]); in experiment [2] (setting [24])) was 100% in each case. Moreover, the pest or weed control at 250 g/ha in the experiment with Lolium perenne (LOLPE) (setting [25]) and in the experiment with Lolium perenne (LOLPE) (setting [26]) was 100% throughout.

`CCOCOC1=C(c2c(C)cc(-c3ncc(Cl)cn3)cc2C)C(=O)C(CC(=O)NC(C)(C)C)C1` (stereo not shown) [Compound P6]: the pest or weed control at 250 g/ha turned out to be 100% in experiment [1] (setting [3]); 100% in experiment [1] (setting [4]); 90% with Avena fatua (AVEFA) (setting [5]); 100% in the experiment with Avena fatua (AVEFA) (setting [6]); 100% in experiment [2] (setting [7]); 100% in experiment [2] (setting [8]). Besides, the pest or weed control at 250 g/ha with Lolium perenne (LOLPE) (setting [9]) and in the experiment with Lolium perenne (LOLPE) (setting [10]) was 100% in each case.

For the compound `COc1ccc(CNC(=O)CC2CC(=O)C(c3c(C)cc(C)cc3C)C2=O)cc1` (stereo not shown) [Compound B18], the pest or weed control at 250 g/ha was 80% in experiment [1] (setting [11]); 70% in experiment [1] (setting [12]); 90% in the experiment on Avena fatua (AVEFA) (setting [13]); 80% with Avena fatua (AVEFA) (setting [14]); 90% in experiment [2] (setting [15]); 90% in experiment [2] (setting [16]). For the same compound, the pest or weed control at 250 g/ha with Lolium perenne (LOLPE) (setting [17]) and in the experiment with Lolium perenne (LOLPE) (setting [18]) was 100% in each case.
